Assay results taken from ChEMBL document CHEMBL3872251, “Computational approach for the assessment of inhibitory potency against beta-amyloid aggregation” (Bioorg Med Chem Lett, 2017).

organism: Homo sapiens; assay: Inhibition of amyloid beta (17 to 42) (unknown origin) aggregation at 10 uM by thioflavin T-based fluorimetric assay

| Structure (SMILES) | inhibition |
| --- | --- |
| c1ccc(CN2CCC(NCCCCCCn3ccc4ccccc43)CC2)cc1 | 56% |
| O=C1c2ccccc2C(=O)N1CCCCCNCc1ccccc1 | 10% |

Continued, values first:

| inhibition | Structure (SMILES) |
| --- | --- |
| 0% | CCN(CC)CCCCCCN1C(=O)c2ccccc2C1=O |
| 39.4% | CCN(CC)CCCCCCCN1C(=O)c2ccccc2C1=O |
| 10% | O=C1c2ccccc2C(=O)N1CCCNC1CCN(Cc2ccccc2)CC1 |

system: not listed separately; assay: Inhibition of Tg2576 mouse amyloid beta40 aggregation measured after 3 days by ELISA

| IC50 | Structure (SMILES) |
| --- | --- |
| 1000 nM | COc1cc(/C=C/C(=O)CC(=O)/C=C/c2ccc(O)c(OC)c2)ccc1O [CURCUMIN] |
